Experimental data from US20230233533A1, “COMPOSITIONS, METHODS OF TREATING AND PREVENTING FUNGAL INFECTIONS, AND METHODS OF INHIBITING PRP8 INTEIN EXPRESSION” (Health Research, Inc., priority 2020, published 2023).
Values after ≈ are worked out from the molar mass of the structure shown.

Tests used:
in vitro = format: cell-based, human; settings: human, CC50 A549
Procedure: Cytotoxicity—Cytotoxicity assays were carried out using human lung carcinoma cell line A549, as described (Chen et al., “Selective Inhibition of the West Nile Virus Methyltransferase by Nucleoside Analogs,” Antiviral Research 97(3):232-239 (2013), which is hereby incorporated by reference in its entirety). Briefly, the A549 cells (5×10^3) were incubated with/without compounds in a 96-well plate at 37° C. for 48 h. Cell viability was determined using the MTT assay (ATCC) as was described previously (Chen et al., “Selective Inhibition of the West Nile Virus Methyltransferase by Nucleoside Analogs,” Antiviral Research 97(3):232-239 (2013) and Brecher et al., “Identification and Characterization of Novel Broad-Spectrum Inhibitors of the Flavivirus Methyltransferase,” ACS Infectious Diseases 1(8):340-349 (2015), both of which are hereby incorporated by reference in their entirety). N=3.
Cytotoxicity—Cytotoxicity assays were carried out using human lung carcinoma cell line A549, as described. Chen et al., “Selective Inhibition of the West Nile Virus Methyltransferase by Nucleoside Analogs,” Antiviral Res. 97:232-9 (2013), which is hereby incorporated by reference in its entirety. Briefly, the A549 cells (5×10^3) were incubated with/without compounds in a 96-well plate at 37° C. for 48 h. Cell viability was determined using the MTT assay (ATCC) as was described previously (Chen et al., “Selective Inhibition of the West Nile Virus Methyltransferase by Nucleoside Analogs,” Antiviral Research 97(3):232-239 (2013) and Brecher et al., “Identification and Characterization of Novel Broad-Spectrum Inhibitors of the Flavivirus Methyltransferase,” ACS Infectious Diseases 1(8):340-349 (2015), both of which are hereby incorporated by reference in their entirety). N=3.

Prp8 intein [1] = molecular target: T1, Prp8 intein (Cryptococcus gattii, UniProt E6R027); experiment: Split Cys-free (Cf) GFP-Prp8 intein splicing assay; format: biochemical; settings: read-out: IC50 CfGFP-Prp8 (converted)
T1 sequence (E6R027 entry or part of it): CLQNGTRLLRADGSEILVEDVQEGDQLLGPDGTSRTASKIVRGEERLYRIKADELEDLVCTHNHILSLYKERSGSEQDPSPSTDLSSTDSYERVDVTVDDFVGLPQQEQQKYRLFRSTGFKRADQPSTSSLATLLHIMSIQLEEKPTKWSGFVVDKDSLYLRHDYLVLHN
Procedure: (§1) The constructs for Cys-free (Cf) GFP-Prp8 and Cys-free nanoluciferase NnLuc-Prp8 were codon-optimized, synthesized, and cloned into the pET28a vector using the NcoI and XhoI sites by Gene Universal (Gene Universal, Newark Del.). […] The expression, refolding and purification of the CfGFP-Prp8 and NnLuc-Prp8 fusion proteins were carried out as described previously. […] Microbes. Infect.
Split GFP-Prp8 and CJGFP-Prp8 intein splicing assays—Using black and clear bottom 96-well plates, the DPNB-treated, -refolded and -concentrated GFP-Prp8 or CfGFP-Prp8 fusion protein (0.5 μM) was incubated with compounds or Dimethylsulfoxide (DMSO) solvent control for 30 min at 25° C. in a 100 μl intein splicing buffer (20 mM Bis-tris propane, 0.5 M NaCl, 0.5 M arginine, 1 mM EDTA, and 0.05% CHAPS). Then 100 μl 2×TCEP was added to a final concentration of 20 μM. The reactions were incubated at 25° C. overnight. […] Two readings were taken, one prior to addition of TCEP (I0) and one after incubation overnight with TCEP (If). Fluorescence/luminescence differences (ΔFluorescence or ΔLuminescence) were defined as If−I0 for each well. […] DMSO control served as 100% splicing activity.

Prp8 intein [2] = molecular target: T1, Prp8 intein; experiment: Split nanoluciferase NnLuc-Prp8 intein splicing assay; format: biochemical
Procedure: as §1
Split luciferase RLuc-Prp8 and NnLuc-Prp8 intein splicing assays—The split RLuc-Prp8 intein splicing assay was carried out and monitored using a Veritas luminometer, as described previously. […] Microbes. Infect. […] For NnLuc-Prp8 intein splicing assay, the NnLuc-prp8 is diluted in assay buffer (50 mM Tris, 0.1% BSA, 1 mM EDTA, pH 7.4) and 50 ul is added to each well in 96 well black plates. Test molecules or the solvent was added and incubated for 30 to 60 min. A splicing inducer TCEP (50 ul, 100 μM) is added and incubated for 24 h. Luciferase substrate (Furimazine, 25 ul 1:10,000 diluted) is added and luminescence is read using a luminescence reader. IC50 is calculated using Graphpad prism.

C. neoformans H99 strain = experiment: Fungal susceptibility test, broth microdilution MIC; format: cell-based, Cryptococcus neoformans; settings: Cryptococcus neoformans, H99STRAIN; C. neoformans H99, microbroth dilution; read-out: MIC H99
Procedure: Fungal susceptibility test—The fungal susceptibility test was carried out with a compound concentration series as described. […] The broth microdilution method was used to determine the compound MIC values against C. neoformans.
Fungal susceptibility test—The fungal susceptibility test was carried out with a compound concentration series as described. […] Microbes. Infect. […] The broth microdilution method was used to determine the compound MIC values against C. neoformans.

SMILES | CC50 at 48 h (in vitro) [µM] | IC50 (Prp8 intein [1]) [µM] | IC50 (Prp8 intein [2]) [µM] | MIC (C. neoformans H99 strain) [µM]
O=C(Nc1ccccc1F)c1nnsc1S(=O)(=O)c1ccc(Cl)cc1 [JMX872, 5-((4-Chlorophenyl)sulfonyl)-N-(2-fluorophenyl)-1,2,3-thiadiazole-4-carboxamide] | 162 | 28.3 | 31.8 | > 50
O=C(Nc1ccc(F)c(F)c1)c1nnsc1S(=O)(=O)c1ccc(Cl)cc1 [JMX876, 5-((4-Chlorophenyl)sulfonyl)-N-(3,4-difluorophenyl)-1,2,3-thiadiazole-4-carboxamide] | 163 | 33.5 | 22 | 3.12 (≈ 1.3 µg/mL)
Cc1ccc(NC(=O)c2nnsc2S(=O)(=O)c2ccc(Cl)cc2)cc1 [JMX1033, 5-((4-chlorophenyl)sulfonyl)-N-(p-tolyl)-1,2,3-thiadiazole-4-carboxamide] | 156 | 35.2 | 45.9 | > 50
Cc1ccc(NC(=O)c2nnsc2[S+]([O-])c2ccc(Cl)cc2)cc1 (stereo not shown) [JMX1033-2] | 74.6 | 47.3 | 3.8 | > 50
O=C(Nc1ccc(Br)cc1)c1nnsc1S(=O)(=O)c1ccc(Cl)cc1 [JMX1034, N-(4-Bromophenyl)-5-((4-chlorophenyl)sulfonyl)-1,2,3-thiadiazole-4-carboxamide] | 84.8 | 33.1 | 15.4 | > 50
O=C(Nc1ccccc1)c1nnsc1S(=O)(=O)c1ccc(Cl)cc1 [JMX1035, 5-((4-Chlorophenyl)sulfonyl)-N-phenyl-1,2,3-thiadiazole-4-carboxamide] | 84.1 | 38.4 | 33.9 | 6.25 (≈ 2.37 µg/mL)
O=C(Nc1cc(F)cc(Cl)c1)c1nnsc1S(=O)(=O)c1ccc(Cl)cc1 [JMX1036, N-(3-Chloro-5-fluorophenyl)-5-((4-chlorophenyl)sulfonyl)-1,2,3-thiadiazole-4-carboxamide] | 70.9 | 32.9 | 21.4 | 1.56 (≈ 0.674 µg/mL)
O=C(Nc1ccc(F)c(Cl)c1)c1nnsc1S(=O)(=O)c1ccc(Cl)cc1 [JMX1037, N-(3-Chloro-4-fluorophenyl)-5-((4-chlorophenyl)sulfonyl)-1,2,3-thiadiazole-4-carboxamide] | 63.2 | 31.4 | 14.1 | 25 (≈ 10.8 µg/mL)
O=C(Nc1cc(F)cc(F)c1)c1nnsc1S(=O)(=O)c1ccc(Cl)cc1 [JMX1038, 5-((4-Chlorophenyl)sulfonyl)-N-(3,5-difluorophenyl)-1,2,3-thiadiazole-4-carboxamide] | 54.2 | 37.1 | 37.4 | > 50
O=C(Nc1cc(F)cc(C(F)(F)F)c1)c1nnsc1S(=O)(=O)c1ccc(Cl)cc1 [JMX1040, 5-((4-chlorophenyl)sulfonyl)-N-(3-fluoro-5-(trifluoromethyl)phenyl)-1,2,3-thiadiazole-4-carboxamide] | 56.3 | 32.8 | 20.6 | 3.12 (≈ 1.45 µg/mL)
O=C(Nc1cc(C(F)(F)F)cc(C(F)(F)F)c1)c1nnsc1S(=O)(=O)c1ccc(Cl)cc1 [JMX1041, N-(3,5-Bis(trifluoromethyl)phenyl)-5-((4-chlorophenyl)sulfonyl)-1,2,3-thiadiazole-4-carboxamide] | 66.7 | 37.9 | 18.5 | > 50
O=C(Nc1ccc(C(F)(F)F)cc1Cl)c1nnsc1S(=O)(=O)c1ccc(Cl)cc1 [JMX1042, N-(2-Chloro-4-(trifluoromethyl)phenyl)-5-((4-chlorophenyl)sulfonyl)-1,2,3-thiadiazole-4-carboxamide] | 98.7 | 41.5 | 10.9 | > 50
O=C(Nc1ccc([N+](=O)[O-])cc1F)c1nnsc1S(=O)(=O)c1ccc(Cl)cc1 [JMX1043, 5-((4-Chlorophenyl)sulfonyl)-N-(2-fluoro-4-nitrophenyl)-1,2,3-thiadiazole-4-carboxamide] | 66.9 | 38.1 | 19.6 | > 50
O=C(Nc1cc(F)c(F)c(F)c1)c1nnsc1S(=O)(=O)c1ccc(Cl)cc1 [JMX1044, 5-((4-Chlorophenyl)sulfonyl)-N-(3,4,5-trifluorophenyl)-1,2,3-thiadiazole-4-carboxamide] | 47.8 | 31.8 | 16.3 | > 50
O=C(Nc1cc(F)c(F)c(F)c1)c1nnsc1[S+]([O-])c1ccc(Cl)cc1 (stereo not shown) [JMX1044-2, 5-((4-Chlorophenyl)sulfinyl)-N-(3,4,5-trifluorophenyl)-1,2,3-thiadiazole-4-carboxamide] | 47.5 | 26.9 | 4.4 | > 50
O=C(Nc1c(F)cc(F)cc1F)c1nnsc1S(=O)(=O)c1ccc(Cl)cc1 [JMX1045, 5-((4-Chlorophenyl)sulfonyl)-N-(2,4,6-trifluorophenyl)-1,2,3-thiadiazole-4-carboxamide] | 47.9 | 34.3 | 15.9 | > 50
O=C(Nc1c(F)cc(F)cc1F)c1nnsc1[S+]([O-])c1ccc(Cl)cc1 (stereo not shown) [JMX1045-2, 5-((4-Chlorophenyl)sulfinyl)-N-(2,4,6-trifluorophenyl)-1,2,3-thiadiazole-4-carboxamide] | 61 | 27.4 | 8.6 | 3.12 (≈ 1.3 µg/mL)
O=C(Nc1ccc(Cl)c(F)c1)c1nnsc1S(=O)(=O)c1ccc(Cl)cc1 [JMX1046, N-(4-Chloro-3-fluorophenyl)-5-((4-chlorophenyl)sulfonyl)-1,2,3-thiadiazole-4-carboxamide] | 145 | 34.1 | 20.1 | > 50
O=C(Nc1ccc(Cl)c(F)c1)c1nnsc1[S+]([O-])c1ccc(Cl)cc1 (stereo not shown) [JMX1046-2, N-(4-Chloro-3-fluorophenyl)-5-((4-chlorophenyl)sulfinyl)-1,2,3-thiadiazole-4-carboxamide] | 149 | 32.2 | 7.5 | 1.56 (≈ 0.649 µg/mL)
O=C(Nc1ccc(F)cc1)c1nnsc1S(=O)(=O)c1ccc(Cl)cc1Cl [JMX1059, 5-((2,4-Dichlorophenyl)sulfonyl)-N-(4-fluorophenyl)-1,2,3-thiadiazole-4-carboxamide] | 68.1 | 31.9 | 20.9 | 12.5 (≈ 5.4 µg/mL)
O=C(Nc1ccc(F)cc1)c1nnsc1S(=O)(=O)c1ccc(F)c(F)c1 [JMX1060, 5-((3,4-Difluorophenyl)sulfonyl)-N-(4-fluorophenyl)-1,2,3-thiadiazole-4-carboxamide] | 61.1 | 32.8 | 23.5 | 50 (≈ 20 µg/mL)
O=C(Nc1ccc(F)cc1)c1nnsc1S(=O)(=O)c1ccc(F)cc1 [JMX1061, N-(4-Fluorophenyl)-5-((4-fluorophenyl)sulfonyl)-1,2,3-thiadiazole-4-carboxamide] | 71.7 | 51.3 | 23.7 | > 50
